From ChEMBL document CHEMBL1909046, “DrugMatrix in vitro pharmacology data”

What was measured:
[1] = DRUGMATRIX: Tumor Necrosis Factor (TNF), Non-Selective radioligand binding (ligand: [125I] TNF-alpha); assay type: cell membranes, Membrane; details: u-937; Not Active = under 50% inhibition at 10 µM
[2] = target: T1, C-C chemokine receptor type 4 (Homo sapiens, UniProt P51679); assay type: cell membranes, Membrane; details: chem-1; further: in other assays of this panel Not Active means under 50% inhibition at 10 µM
T1 sequence (P51679 whole entry): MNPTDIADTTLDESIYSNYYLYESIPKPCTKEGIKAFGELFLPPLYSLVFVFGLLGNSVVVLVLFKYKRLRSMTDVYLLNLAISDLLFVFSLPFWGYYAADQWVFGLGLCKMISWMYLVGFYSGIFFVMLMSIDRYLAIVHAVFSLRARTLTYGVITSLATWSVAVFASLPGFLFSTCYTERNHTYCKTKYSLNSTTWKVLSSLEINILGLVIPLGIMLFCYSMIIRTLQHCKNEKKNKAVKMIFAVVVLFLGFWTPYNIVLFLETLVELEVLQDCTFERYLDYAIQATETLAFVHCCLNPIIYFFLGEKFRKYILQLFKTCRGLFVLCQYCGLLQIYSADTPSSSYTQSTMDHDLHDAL

[3] = DRUGMATRIX: GABAA, Chloride Channel, TBOB radioligand binding (ligand: [3H] TBOB); assay type: cell membranes, Rattus norvegicus, Wistar, Cerebral cortex, Membrane; details: Not Active = under 50% inhibition at 10 µM
Insulin receptor = Insulin receptor (Rattus norvegicus, UniProt P15127); assay type: cell membranes, Wistar, Liver, Membrane; further: in other assays of this panel Not Active means under 50% inhibition at 10 µM
Sequence of Insulin receptor (P15127 27-759 limits assumed): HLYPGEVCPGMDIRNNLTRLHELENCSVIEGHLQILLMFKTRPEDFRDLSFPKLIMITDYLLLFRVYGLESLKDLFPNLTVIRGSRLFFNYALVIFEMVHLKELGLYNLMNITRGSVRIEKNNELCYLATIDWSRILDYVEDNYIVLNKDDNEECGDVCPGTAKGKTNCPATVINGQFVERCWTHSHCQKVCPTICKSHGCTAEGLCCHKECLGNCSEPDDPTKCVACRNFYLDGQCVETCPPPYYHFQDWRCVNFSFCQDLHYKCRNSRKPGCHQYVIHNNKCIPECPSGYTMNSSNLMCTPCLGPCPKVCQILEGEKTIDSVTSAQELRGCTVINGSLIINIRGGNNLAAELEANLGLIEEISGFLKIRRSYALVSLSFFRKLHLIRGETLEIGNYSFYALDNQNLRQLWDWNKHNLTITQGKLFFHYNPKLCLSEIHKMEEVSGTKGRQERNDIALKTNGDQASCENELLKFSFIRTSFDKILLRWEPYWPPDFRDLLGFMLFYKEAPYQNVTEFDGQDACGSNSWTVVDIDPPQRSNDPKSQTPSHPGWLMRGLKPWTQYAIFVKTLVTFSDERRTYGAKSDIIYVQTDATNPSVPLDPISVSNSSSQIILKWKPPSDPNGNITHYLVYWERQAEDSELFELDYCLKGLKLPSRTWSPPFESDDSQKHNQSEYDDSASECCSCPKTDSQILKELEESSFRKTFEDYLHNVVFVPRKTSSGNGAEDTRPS
Sequence of Insulin receptor (P15127 764-1383 limits assumed): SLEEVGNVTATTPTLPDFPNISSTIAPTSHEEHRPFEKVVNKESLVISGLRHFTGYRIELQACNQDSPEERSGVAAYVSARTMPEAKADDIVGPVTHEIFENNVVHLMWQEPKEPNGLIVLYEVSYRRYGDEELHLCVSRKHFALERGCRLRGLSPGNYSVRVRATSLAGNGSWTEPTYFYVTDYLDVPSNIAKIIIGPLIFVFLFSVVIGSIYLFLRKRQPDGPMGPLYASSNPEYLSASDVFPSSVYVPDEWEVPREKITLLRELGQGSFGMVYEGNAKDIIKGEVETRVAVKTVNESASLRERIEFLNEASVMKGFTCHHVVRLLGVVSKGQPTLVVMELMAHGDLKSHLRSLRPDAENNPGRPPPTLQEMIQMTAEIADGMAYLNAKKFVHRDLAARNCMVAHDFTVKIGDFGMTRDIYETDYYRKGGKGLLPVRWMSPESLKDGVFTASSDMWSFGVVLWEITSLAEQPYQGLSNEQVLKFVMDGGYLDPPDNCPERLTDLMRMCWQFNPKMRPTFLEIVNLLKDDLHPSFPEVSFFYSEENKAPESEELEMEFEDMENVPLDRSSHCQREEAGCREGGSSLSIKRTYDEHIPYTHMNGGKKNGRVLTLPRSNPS

Melanocortin receptor 3 = Melanocortin receptor 3 (Homo sapiens, UniProt P41968); assay type: cell membranes, Membrane; details: hek293; further: in other assays of this panel Not Active means under 50% inhibition at 10 µM
Sequence of Melanocortin receptor 3 (P41968 whole entry): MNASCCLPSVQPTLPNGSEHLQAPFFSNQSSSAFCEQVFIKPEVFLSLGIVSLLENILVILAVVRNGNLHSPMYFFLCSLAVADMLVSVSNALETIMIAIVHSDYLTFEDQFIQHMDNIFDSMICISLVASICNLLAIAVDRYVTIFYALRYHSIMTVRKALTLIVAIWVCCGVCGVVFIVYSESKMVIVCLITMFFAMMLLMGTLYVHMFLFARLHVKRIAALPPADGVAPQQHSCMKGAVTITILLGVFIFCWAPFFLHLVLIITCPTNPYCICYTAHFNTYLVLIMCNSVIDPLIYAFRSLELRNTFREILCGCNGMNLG

[4] = target: T2, Muscarinic acetylcholine receptor M4 (Homo sapiens, UniProt P08173); assay type: cell membranes, CHO-K1, Membrane; details: cho-k1; further: in other assays of this panel Not Active means under 50% inhibition at 10 µM
T2 sequence (P08173 whole entry): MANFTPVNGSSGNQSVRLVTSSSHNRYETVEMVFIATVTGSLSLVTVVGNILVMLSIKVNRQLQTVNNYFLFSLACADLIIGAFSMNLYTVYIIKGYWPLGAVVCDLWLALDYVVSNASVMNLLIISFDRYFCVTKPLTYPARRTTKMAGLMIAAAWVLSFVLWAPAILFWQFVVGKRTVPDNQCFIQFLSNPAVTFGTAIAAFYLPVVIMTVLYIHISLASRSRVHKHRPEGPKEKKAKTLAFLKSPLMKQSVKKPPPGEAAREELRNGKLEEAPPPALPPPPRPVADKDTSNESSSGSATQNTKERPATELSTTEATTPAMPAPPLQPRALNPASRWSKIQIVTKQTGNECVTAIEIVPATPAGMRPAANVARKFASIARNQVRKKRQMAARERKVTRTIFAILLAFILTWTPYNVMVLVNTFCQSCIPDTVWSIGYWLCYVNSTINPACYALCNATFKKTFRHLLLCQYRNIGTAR

[5] = target: Kappa-type opioid receptor (Homo sapiens, UniProt P41145); experiment: DRUGMATRIX: Opiate kappa (OP2, KOP) radioligand binding (ligand: [3H] Diprenorphine); assay type: cell membranes, HEK293, Membrane; details: hek293; Not Active = under 50% inhibition at 10 µM
Sequence of Kappa-type opioid receptor (P41145 whole entry): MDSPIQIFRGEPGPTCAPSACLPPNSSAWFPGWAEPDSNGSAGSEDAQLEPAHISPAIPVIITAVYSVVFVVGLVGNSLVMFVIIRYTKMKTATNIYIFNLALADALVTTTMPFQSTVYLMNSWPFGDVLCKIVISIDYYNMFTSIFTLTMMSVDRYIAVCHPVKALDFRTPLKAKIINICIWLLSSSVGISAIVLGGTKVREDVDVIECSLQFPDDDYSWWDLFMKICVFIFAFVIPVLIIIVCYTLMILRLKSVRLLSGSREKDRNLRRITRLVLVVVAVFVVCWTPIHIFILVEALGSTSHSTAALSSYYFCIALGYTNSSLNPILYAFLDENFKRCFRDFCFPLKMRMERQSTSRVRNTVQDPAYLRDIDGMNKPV

Caspase-1 = target: T3, Caspase-1 (Homo sapiens, UniProt P29466); set-up: species or system Escherichia coli
T3 sequence (P29466 whole entry): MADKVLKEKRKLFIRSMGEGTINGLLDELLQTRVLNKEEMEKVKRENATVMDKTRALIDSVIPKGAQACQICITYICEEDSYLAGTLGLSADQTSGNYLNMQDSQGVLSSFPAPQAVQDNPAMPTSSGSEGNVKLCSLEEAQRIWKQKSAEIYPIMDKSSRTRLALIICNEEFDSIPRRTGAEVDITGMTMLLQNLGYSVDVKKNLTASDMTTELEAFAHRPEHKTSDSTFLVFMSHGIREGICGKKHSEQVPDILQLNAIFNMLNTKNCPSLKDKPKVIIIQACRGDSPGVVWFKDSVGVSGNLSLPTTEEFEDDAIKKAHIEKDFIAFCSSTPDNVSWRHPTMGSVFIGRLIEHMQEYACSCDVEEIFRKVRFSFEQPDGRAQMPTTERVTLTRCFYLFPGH

[6] = target: Mitogen-activated protein kinase 1 (Homo sapiens, UniProt P28482); experiment: DRUGMATRIX: Protein Serine/Threonine Kinase, ERK2 enzyme inhibition (substrate: Myelin Basic Protein); set-up: species or system Escherichia coli; details: Not Active = under 50% inhibition at 10 µM
Sequence of Mitogen-activated protein kinase 1 (P28482 whole entry): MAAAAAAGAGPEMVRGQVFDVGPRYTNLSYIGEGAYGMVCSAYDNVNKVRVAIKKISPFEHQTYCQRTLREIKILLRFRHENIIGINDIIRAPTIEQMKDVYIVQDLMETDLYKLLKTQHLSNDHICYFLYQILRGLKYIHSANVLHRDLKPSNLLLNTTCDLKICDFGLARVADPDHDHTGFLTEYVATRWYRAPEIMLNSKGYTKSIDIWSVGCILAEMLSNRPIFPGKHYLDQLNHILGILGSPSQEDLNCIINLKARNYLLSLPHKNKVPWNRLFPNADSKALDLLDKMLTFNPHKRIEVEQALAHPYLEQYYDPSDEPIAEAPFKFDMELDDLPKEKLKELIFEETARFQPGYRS

[7] = target: Epidermal growth factor receptor (Homo sapiens, UniProt P00533); experiment: DRUGMATRIX: Protein Tyrosine Kinase, EGF Receptor enzyme inhibition (substrate: Poly(Glu:Tyr)); assay type: cell-based, Insect cells; details: insect cells; Not Active = under 50% inhibition at 10 µM
[8] = target: Receptor tyrosine-protein kinase erbB-2 (Homo sapiens, UniProt P04626); experiment: biochemical; assay type: cell-based, Insect cells; details: insect cells
Sequence of Receptor tyrosine-protein kinase erbB-2 (P04626 whole entry): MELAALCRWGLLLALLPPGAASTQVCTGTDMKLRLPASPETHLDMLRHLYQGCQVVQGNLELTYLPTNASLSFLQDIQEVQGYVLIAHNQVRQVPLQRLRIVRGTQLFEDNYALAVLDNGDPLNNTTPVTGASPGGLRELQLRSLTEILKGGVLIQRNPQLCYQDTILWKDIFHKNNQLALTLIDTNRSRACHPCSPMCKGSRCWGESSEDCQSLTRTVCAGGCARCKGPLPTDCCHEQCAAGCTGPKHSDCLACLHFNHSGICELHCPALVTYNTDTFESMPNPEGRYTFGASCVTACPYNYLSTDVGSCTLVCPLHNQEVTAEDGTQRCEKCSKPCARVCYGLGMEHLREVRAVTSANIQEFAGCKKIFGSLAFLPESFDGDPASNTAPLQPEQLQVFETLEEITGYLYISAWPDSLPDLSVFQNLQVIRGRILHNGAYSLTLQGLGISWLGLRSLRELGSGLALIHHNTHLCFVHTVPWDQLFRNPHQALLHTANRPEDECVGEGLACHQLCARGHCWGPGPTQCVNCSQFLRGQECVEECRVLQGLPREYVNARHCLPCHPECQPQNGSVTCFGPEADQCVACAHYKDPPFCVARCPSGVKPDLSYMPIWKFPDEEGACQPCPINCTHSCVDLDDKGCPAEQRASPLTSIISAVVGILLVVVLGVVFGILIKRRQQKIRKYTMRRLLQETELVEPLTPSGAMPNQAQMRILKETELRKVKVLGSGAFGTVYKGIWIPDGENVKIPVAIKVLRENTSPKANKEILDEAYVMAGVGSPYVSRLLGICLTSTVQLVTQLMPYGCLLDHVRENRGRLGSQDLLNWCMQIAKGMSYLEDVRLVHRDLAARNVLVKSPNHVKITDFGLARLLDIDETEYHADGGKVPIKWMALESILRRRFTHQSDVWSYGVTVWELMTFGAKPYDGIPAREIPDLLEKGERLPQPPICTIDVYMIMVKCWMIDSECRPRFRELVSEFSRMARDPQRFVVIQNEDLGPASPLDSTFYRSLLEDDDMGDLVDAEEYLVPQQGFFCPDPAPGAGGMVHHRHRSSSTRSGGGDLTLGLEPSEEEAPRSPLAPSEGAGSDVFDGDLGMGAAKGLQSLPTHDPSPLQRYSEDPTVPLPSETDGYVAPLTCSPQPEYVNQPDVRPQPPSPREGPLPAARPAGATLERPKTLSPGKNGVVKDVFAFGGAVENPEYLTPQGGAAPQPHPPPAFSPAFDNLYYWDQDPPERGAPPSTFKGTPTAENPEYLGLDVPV

[9] = target: 5-hydroxytryptamine receptor 1B (Rattus norvegicus, UniProt P28564); assay type: cell membranes, Wistar, Cerebral cortex, Membrane; further: in other assays of this panel Not Active means under 50% inhibition at 10 µM
Sequence of 5-hydroxytryptamine receptor 1B (P28564 whole entry): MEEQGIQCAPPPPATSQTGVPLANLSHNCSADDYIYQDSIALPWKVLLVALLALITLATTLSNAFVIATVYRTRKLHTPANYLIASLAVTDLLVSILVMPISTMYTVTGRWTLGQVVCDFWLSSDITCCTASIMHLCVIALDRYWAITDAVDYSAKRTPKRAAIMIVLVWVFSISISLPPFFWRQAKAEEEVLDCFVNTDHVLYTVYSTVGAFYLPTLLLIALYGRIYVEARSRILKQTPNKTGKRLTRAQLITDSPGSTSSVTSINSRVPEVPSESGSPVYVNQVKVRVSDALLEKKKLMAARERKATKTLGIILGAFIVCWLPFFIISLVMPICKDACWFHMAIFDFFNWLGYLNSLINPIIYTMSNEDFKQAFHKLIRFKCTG

Glucocorticoid receptor = target: T4, Glucocorticoid receptor (Homo sapiens, UniProt P04150); details: hela s3; further: in other assays of this panel Not Active means under 50% inhibition at 10 µM
T4 sequence (P04150 whole entry): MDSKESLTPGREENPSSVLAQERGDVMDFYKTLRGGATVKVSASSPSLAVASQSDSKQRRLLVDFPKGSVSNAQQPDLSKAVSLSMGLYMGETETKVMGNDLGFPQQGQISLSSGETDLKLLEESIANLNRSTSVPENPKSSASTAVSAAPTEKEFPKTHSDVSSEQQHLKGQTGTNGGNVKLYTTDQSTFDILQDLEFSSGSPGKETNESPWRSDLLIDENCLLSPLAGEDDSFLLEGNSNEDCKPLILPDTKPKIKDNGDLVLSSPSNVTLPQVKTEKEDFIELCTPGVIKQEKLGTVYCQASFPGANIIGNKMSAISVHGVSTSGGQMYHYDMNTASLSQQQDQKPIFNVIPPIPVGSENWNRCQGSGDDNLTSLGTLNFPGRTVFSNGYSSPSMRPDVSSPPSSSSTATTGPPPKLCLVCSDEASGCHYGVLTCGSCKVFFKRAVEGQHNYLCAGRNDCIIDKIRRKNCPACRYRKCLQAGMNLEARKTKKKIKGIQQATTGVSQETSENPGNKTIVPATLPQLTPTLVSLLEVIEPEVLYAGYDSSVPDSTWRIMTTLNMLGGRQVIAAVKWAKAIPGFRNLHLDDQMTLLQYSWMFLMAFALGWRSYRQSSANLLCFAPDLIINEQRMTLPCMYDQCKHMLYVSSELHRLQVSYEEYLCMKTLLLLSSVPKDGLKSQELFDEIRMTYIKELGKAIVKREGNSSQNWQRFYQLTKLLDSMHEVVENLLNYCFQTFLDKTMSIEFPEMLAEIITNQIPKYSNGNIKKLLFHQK

Cytochrome P450 2C9 = Cytochrome P450 2C9 (Homo sapiens, UniProt P11712); details: bti-tn-5b1-4; further: in other assays of this panel Not Active means under 50% inhibition at 10 µM
Sequence of Cytochrome P450 2C9 (P11712 whole entry): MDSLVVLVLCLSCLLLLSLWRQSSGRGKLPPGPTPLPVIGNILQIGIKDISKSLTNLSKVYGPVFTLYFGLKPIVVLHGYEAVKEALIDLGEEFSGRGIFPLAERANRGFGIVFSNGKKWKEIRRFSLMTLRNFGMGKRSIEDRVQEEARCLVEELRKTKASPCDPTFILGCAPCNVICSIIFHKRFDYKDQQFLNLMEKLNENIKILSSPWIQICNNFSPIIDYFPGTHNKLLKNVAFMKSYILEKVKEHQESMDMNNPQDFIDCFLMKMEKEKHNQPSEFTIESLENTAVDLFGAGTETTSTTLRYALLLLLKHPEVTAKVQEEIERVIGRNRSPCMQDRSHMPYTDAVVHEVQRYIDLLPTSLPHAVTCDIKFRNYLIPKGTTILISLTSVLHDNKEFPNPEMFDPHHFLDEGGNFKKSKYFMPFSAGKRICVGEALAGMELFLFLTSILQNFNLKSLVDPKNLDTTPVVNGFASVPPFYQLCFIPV

Row | SMILES | IC50 [1] | Ki [1] | IC50 [2] | IC50 [3] | Ki [3] | IC50 (Insulin receptor) | IC50 (Melanocortin receptor 3) | IC50 [4] | IC50 [5] | IC50 (Caspase-1) | IC50 [6] | IC50 [7] | IC50 [8] | IC50 [9] | IC50 (Glucocorticoid receptor) | IC50 (Cytochrome P450 2C9) | Ki (Cytochrome P450 2C9) | IC50 ([9]; read-out: IC50) [µM] | Ki ([9]; read-out: Ki) [µM]
1 | CC(C)NC[C@H](O)COc1cccc2[nH]ccc12 | Not Active | Not Active | Not Active | Not Active | Not Active | Not Active | Not Active | Not Active | Not Active | Not Active | Not Active | Not Active | Not Active | Not Active | Not Active |  |  |  | 
2 | CCCCOC(=O)c1ccc(N)cc1 [BUTAMBEN] | Not Active | Not Active | Not Active | Not Active | Not Active | Not Active | Not Active | Not Active | Not Active | Not Active | Not Active | Not Active | Not Active | Not Active | Not Active |  |  |  | 
3 | O=C1CCc2cc(OCCCCc3nnnn3C3CCCCC3)ccc2N1 [CILOSTAZOL] | Not Active | Not Active | Not Active | Not Active | Not Active | Not Active | Not Active | Not Active | Not Active | Not Active | Not Active | Not Active | Not Active | Not Active | Not Active |  |  |  | 
4 | O=C(O)c1cn(C2CC2)c2cc(N3CCNCC3)c(F)cc2c1=O [CIPROFLOXACIN] | Not Active | Not Active | Not Active | Not Active | Not Active | Not Active | Not Active | Not Active | Not Active | Not Active | Not Active | Not Active | Not Active | Not Active | Not Active |  |  |  | 
5 | CC(C)n1c(/C=C/C(O)CC(O)CC(=O)O)c(-c2ccc(F)cc2)c2ccccc21 (stereo not drawn) [FLUVASTATIN] | Not Active | Not Active | Not Active | Not Active | Not Active | Not Active | Not Active | Not Active | Not Active | Not Active | Not Active | Not Active | Not Active | Not Active | Not Active |  |  |  | 
6 | COc1c(N2CCNC(C)C2)c(F)cc2c(=O)c(C(=O)O)cn(C3CC3)c12 (stereo not drawn) [GATIFLOXACIN] | Not Active | Not Active | Not Active | Not Active | Not Active | Not Active | Not Active | Not Active | Not Active | Not Active | Not Active |  | Not Active | Not Active | Not Active | Not Active | Not Active |  | 
7 | CNCCC=C1c2ccccc2CCc2ccccc21 [NORTRIPTYLINE] | Not Active | Not Active | Not Active | Not Active | Not Active | Not Active | Not Active |  | Not Active | Not Active | Not Active | Not Active | Not Active |  | Not Active | Not Active | Not Active | 3.2 | 1.45
